Reference: patent US20210032291A1, “Compstatin Analogs With Improved Pharmacokinetic Properties” (The Trustees of the University of Pennsylvania, priority 2011, published 2021)
In brackets after ≈: the same amount, converted by molar mass.

Tests used:
in vivo [1] = test: in vivo; set-up: species or system baboon; settings: 2 mg/kg
Method: A juvenile baboon was injected intramuscularly with 2 mg/kg Cp40 (SEQ ID NO:18) Blood samples for the LC-MS/MS assay were collected in 1-ml plastic tubes containing 50 μg lepirudin, and centrifuged at 2000 g for 20 min at 4° C. for plasma separation. Plasma samples were stored at −70° C. Blood samples were collected at pre-determined time intervals after injection of the analog. Samples were treated with SPE and analyzed using LC-MS/MS. Calibration curves were created using standard peptides at various concentrations in plasma to determine peptide concentration in each sample.
(§1) Extraction of compstatin analog from plasma samples and LC-MS/MS analysis were performed as described in Example 7. A hemolytic assay was performed as described in Example 5.

in vivo [2] = test: in vivo; set-up: species or system cynomolgus monkeys (Macaca fascicularis); settings: cynomolgus monkey
Method: Primate studies and sample collection. […] Two healthy animals were used for each route of administration. The animals were sedated and injected subcutaneously with 2 mg/kg of the compound or orally by intragastric gavage with 4 mg/kg of the compound.
(§2) Analyses. Analysis of plasma samples, determination of plasma half-life and complement inhibitory activity in plasma were performed as described in Example 5.

[3] = test system: classical pathway of complement; test: ELISA inhibition of classical pathway complement activation; assay type: biochemical; settings: read-out: IC50, peptide concentration to reach 50% inhibition of classical pathway complement activation; Table 1
Method: Inhibition of complement activation. The ability of the compstatin analogs to inhibit the activation of the classical pathway of complement was assessed by ELISA as described elsewhere (Katragadda et al., 2006, supra; Mallik et al., 2005, supra). The percent inhibition was plotted against the peptide concentration, and the resulting data set was fitted to the logistic dose-response function using Origin 8.0 software. IC50 values were obtained from the fitted parameters that produced the lowest χ2 value. Each analog was assayed at least three times.

[4] = 5 min, pH 7.4
Method: (§4) Approximately 5 mg of each peptide (acetate form) was weighed out into separate LoBind Eppendorf tubes and 50 μL water for injection (WFI) was added to each tube. Each sample was centrifuged at 13000 rpm for 2 min and diluted for measuring the optical density (OD) at 280 nm using a NanoDrop 2000 spectrophotometer (ThermoScientific, Wilmington, Del.). Each concentrated sample was diluted 1:20 into Dulbecco's phosphate buffered saline (DPBS, without potassium and calcium; Invitrogen, Carlsbad, Calif.). The samples were monitored for precipitation, and each sample was vortexed for 5 min and centrifuged at 13000 rpm for 2 min. The OD of each DPBS supernatant was measured to determine peptide concentration at saturation.
(§5) In addition, the ultra performance liquid chromatography (UPLC) retention time of these peptides on a C18 column was measured to reflect their apparent relative hydrophobicity (Table 3).

[5] = test system: complement activation via the alternative pathway; test: Erythrocyte hemolytic assay on plasma samples of treated cynomolgus monkeys; assay type: in vivo, cynomolgus monkeys (Macaca fascicularis); settings: subcutaneous injection 2 mg/kg
Method: (§3) Hemolytic assay. Rabbit erythrocytes were washed with phosphate-buffered saline (PBS) followed by washing with Veronal-buffered saline (VBS)^Mg+/EGTA. A 1:20 dilution was prepared in VBS buffer. Plasma samples (1:10 in VBS−100 μl) was incubated with the rabbit erythrocytes solution (50 μl) in a 96-well plate at 37° C. for 1 h. EDTA (0.2 mM-15μl) was added to stop the reaction and plate was centrifuged (2500×g 3 min). Supernatant (100μl) was transferred to a new well and optical density was measured at 405 nm. Incubation of erythrocytes with water or buffer was used as positive (100% lysis) and negative (0% lysis) control, respectively.
as §2

in vivo [6] = settings: cynomolgus monkey, iv, 2 mg/kg
Method: Primate studies and sample collection. Evaluation of plasma half-life and generation of major metabolites was performed at the Simian Conservation Breeding and Research Center (SICONBREC, Makati City, Philippines) in cynomolgus monkeys (Macaca fascicularis). […] Blood samples (1-2 mL) were collected immediately before and at various time points after compound injection (2, 5 and 30 min; 1, 2, 4, 6, and 24 hours) in EDTA-coated Vacutainer tubes to prevent coagulation and complement activation, and centrifuged at ˜800×g for 10 min to obtain plasma. Plasma samples were immediately frozen and stored for further analysis. All NHP studies were performed in accordance with animal welfare laws and regulations.
Analysis of plasma samples. Prior to analysis by UPLC-MS, compstatin analogs in the plasma samples were extracted by solid phase extraction (SPE) in a 96-well plate format (HLB Oasis 30 μm, 10 mg; Waters, Milford, Mass.). […] Eluted peptides were directly analyzed by HDMS; the ESI source capillary voltage was set to 3.2 kV, the cone voltage to 30 V and the source temperature to 120° C. […]
Determination of plasma half-life. […] All calibration samples were subjected to SPE and measured using UPLC-HDMS as described above. […] For the pharmacokinetic analysis, the plasma concentration (Cp) at each time point was calculated from the extracted peak area of each peptide using the corresponding standard curve.

C3b = target: T1, C3b (Homo sapiens, UniProt P01024); test: SPR kinetic analysis of binding to immobilized C3b (Biacore, single cycle kinetics)
T1 construct: Biotinylated C3b was captured site-specifically on a streptavidin chip
Procedure, shortened: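 Biotinylated C3b was captured on streptavidin at about 3000 and 5000 RU, against untreated reference cells, in PBS pH 7.4 with 0.005% Tween-20. Five rising concentrations were injected in a single cycle. KD = kd/ka came from a global 1:1 Langmuir fit, with at least two runs.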

in vitro = settings: human, plasma
Method: Plasma stability. Fresh human plasma containing lepirudin (3.75 units/ml) was incubated at 37° C. with Cp30 (SEQ ID NO:7), Cp40 (SEQ ID NO:18) or control peptide 2B at a final concentration of 20 μM each. Samples of 100 μL were taken for solid phase extraction. A 96-well plate HLB Oasis 30 μm 10 mg (Waters, Milford, Mass.) was employed for extraction. The SPE material was conditioned by addition of 500 μL each of methanol and ACN followed by addition of 500 μL of milli-Q water. Sample was diluted 1:1 with 4% H3PO4. After loading the sample, washing was carried out twice with 500 μL of 10% ACN in 0.1% formic acid. Sample was eluted with 200 μL of 65% ACN in 0.1% formic acid and collected in the Eppendorf LoBind collection plate. Sample for UPLC-MS was diluted 1:10 in milli-Q water with 0.1% formic acid. Cp20 (SEQ ID NO:3) was spiked in each sample before SPE as an internal standard.
UPLC-MS analysis. UPLC-MS analysis was performed on a SYNAPT HDMS (Waters, Milford, Mass.) equipped with an ESI source controlled by MassLynx 4.1 software (Waters). Each sample was injected in quadruplicates. An online ACQUITY UPLC (Waters) system was used for peptide separation by reversed-phase liquid chromatography. The capillary voltage was 3.2 kV, the cone voltage was 30 V and the source temperature was 120° C. [Glu1]-fibrinogen peptide was used for lock-mass correction with a sampling rate of 30 s. […]

[7] = Solubility in WFI and DPBS; UPLC C18 retention time as hydrophobicity; settings: UPLC analysis on a C18 column
Method: as §4, §5

[8] = test system: complement activation via the alternative pathway; test: Erythrocyte hemolytic assay on plasma samples of treated baboon; assay type: in vivo; settings: intramuscular injection 2 mg/kg
Method: as §3, §1

T1 sequence (P01024 23-667 limits assumed): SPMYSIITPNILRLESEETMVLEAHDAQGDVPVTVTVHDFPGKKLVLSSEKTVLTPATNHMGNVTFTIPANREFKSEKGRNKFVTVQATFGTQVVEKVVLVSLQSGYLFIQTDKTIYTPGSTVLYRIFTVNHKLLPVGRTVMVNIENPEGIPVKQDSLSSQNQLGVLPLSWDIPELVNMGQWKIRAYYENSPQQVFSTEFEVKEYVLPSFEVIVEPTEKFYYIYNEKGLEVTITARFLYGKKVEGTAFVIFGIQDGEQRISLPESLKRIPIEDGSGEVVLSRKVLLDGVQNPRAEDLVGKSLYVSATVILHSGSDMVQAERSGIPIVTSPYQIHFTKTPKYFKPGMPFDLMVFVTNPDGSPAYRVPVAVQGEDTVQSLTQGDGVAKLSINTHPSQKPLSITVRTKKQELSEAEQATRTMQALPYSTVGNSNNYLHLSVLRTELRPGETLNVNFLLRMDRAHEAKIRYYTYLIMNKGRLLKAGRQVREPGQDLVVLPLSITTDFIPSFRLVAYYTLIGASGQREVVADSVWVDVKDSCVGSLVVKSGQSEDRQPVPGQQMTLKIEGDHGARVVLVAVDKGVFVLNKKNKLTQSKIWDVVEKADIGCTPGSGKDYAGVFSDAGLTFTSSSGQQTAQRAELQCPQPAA
T1 sequence (P01024 749-1663 partner limits assumed): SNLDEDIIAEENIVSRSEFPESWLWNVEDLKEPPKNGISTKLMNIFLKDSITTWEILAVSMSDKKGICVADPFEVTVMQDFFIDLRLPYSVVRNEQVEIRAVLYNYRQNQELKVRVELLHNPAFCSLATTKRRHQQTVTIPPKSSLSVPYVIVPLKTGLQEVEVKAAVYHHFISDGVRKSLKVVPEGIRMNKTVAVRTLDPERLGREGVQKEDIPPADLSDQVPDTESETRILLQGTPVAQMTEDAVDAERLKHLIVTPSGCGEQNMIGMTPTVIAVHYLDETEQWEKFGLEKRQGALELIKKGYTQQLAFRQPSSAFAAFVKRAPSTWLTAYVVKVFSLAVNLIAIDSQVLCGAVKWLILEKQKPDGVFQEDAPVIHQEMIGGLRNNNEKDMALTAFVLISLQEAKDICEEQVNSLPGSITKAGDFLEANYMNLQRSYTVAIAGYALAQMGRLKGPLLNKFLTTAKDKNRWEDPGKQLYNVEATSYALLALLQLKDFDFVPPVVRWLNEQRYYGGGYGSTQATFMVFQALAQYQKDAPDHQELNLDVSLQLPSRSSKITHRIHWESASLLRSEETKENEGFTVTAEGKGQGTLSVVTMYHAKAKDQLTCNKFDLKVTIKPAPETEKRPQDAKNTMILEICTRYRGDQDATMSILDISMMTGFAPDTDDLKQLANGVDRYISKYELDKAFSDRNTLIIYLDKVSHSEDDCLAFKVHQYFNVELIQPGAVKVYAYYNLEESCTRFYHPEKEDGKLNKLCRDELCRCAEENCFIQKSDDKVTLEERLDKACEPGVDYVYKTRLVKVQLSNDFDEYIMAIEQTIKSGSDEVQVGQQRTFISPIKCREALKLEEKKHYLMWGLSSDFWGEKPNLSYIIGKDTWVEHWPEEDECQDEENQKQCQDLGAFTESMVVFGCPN
Method for physchem: as §4, §5

CC[C@H](C)[C@H](NC(=O)[C@H](N)Cc1ccc(O)cc1)C(=O)N[C@H]1CSSC[C@@H](C(=O)N(C)[C@H](C(N)=O)[C@@H](C)CC)NC(=O)[C@H](CCCNC(=N)N)NC(=O)[C@H](Cc2c[nH]cn2)NC(=O)[C@H](C)NC(=O)CN(C)C(=O)[C@H](Cc2c[nH]c3ccccc23)NC(=O)[C@H](CC(=O)O)NC(=O)[C@H](CCC(N)=O)NC(=O)[C@H](Cc2cn(C)c3ccccc23)NC(=O)[C@H](C(C)C)NC1=O [peptide 14, dTyr-Ile-[Cys-Val-Trp(Me)-Gln-Asp-Trp-Sar-Ala-His-Arg-Cys]-mIle-NH2]
Time to peak plasma concentration (in vivo [1]): 5 to 6 h
Cmax (in vivo [1]; monkey, im): ~10 µM
Time to reach the stated plasma concentration (in vivo [2]; po, 4 mg/kg): within one hour
level at time molar (in vivo [2]; po, 4 mg/kg): ~0.023 µM
Cmax (in vivo [2]; sc, 2 mg/kg): ~12.5 µM
Time to peak plasma concentration (in vivo [2]; sc, 2 mg/kg): 4 to 5 h
IC50 [3]: 66 ± 8 nM
Solubility DPBS pH7.4 [4]: 0.8 mg/mL
Complement inhibitory activity versus analog concentration in plasma samples [5]: closely track the concentration of analog
Cmax (in vivo [6]): ~28 µM
ka: association rate (C3b; Table 1, N-terminal analogs): 2.8 ± 0.5 10^6/Ms
ka: association rate (C3b; Table 2, Cp40-based analogs): 2.8 ± 0.6 10^6/Ms
remaining at 120 h, 20 μM (in vitro): > 55%
solubility (physchem): > 50000 µg/mL
solubility at 5 min (physchem; pH 7.4): 800 µg/mL (≈ 447 µM)
Hydrophobicity Retention Time [7]: 4.73 min
Complement inhibitory activity versus analog concentration in plasma samples [8]: closely track the concentration of analog
